For this assay, the target named is T1, TNKS2 (Homo sapiens, UniProt Q9H2K2).
T1 construct: Recombinant GST-TNKS2
T1 sequence (Q9H2K2 1-1166): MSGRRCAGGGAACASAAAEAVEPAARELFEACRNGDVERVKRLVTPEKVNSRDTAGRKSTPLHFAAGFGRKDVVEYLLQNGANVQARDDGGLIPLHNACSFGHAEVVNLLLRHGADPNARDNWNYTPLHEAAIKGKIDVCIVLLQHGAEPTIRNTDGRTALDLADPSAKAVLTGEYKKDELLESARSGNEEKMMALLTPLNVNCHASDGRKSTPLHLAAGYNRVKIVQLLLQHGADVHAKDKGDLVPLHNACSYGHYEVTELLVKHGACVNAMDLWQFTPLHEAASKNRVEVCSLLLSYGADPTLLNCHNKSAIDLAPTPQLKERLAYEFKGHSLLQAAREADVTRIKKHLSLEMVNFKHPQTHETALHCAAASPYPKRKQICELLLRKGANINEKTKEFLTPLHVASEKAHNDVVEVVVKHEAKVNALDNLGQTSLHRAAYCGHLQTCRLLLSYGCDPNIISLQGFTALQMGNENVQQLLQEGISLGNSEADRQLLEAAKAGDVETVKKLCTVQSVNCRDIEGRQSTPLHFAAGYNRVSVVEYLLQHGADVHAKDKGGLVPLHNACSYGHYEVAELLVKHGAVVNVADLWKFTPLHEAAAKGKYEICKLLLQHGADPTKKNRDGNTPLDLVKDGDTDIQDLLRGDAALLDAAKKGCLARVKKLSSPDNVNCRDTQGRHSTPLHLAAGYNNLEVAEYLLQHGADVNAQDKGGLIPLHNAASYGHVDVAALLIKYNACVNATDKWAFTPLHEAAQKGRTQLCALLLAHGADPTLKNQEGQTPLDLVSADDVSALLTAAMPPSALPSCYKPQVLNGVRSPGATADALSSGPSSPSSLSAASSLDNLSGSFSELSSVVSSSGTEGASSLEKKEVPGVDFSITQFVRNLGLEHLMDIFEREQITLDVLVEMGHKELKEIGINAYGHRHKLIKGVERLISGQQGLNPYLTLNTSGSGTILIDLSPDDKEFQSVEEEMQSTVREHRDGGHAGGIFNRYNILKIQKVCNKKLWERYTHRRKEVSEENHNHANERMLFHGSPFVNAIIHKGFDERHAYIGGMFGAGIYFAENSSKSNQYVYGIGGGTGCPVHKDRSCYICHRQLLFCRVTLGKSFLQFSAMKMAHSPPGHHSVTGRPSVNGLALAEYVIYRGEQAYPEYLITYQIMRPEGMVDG
As to the kind of experiment: in vitro auto-ADP-ribosylation assay with recombinant GST-TNKS2, biotinylated substrate, chemiluminescent detection. It counts as biochemical.

This is an account of results in article PMC3515623, “WIKI4, a Novel Inhibitor of Tankyrase and Wnt/ß-Catenin Signaling” (PLoS ONE, 2012).

For `COc1ccc(-n2c(SCCCN3C(=O)c4cccc5cccc(c45)C3=O)nnc2-c2ccncc2)cc1` [WIKI4], the IC50 was around 15 nM.
